Laboratory results reported in patent US20250230147A1, “LACTAMS AS CBL-B INHIBITORS” (Genentech, Inc., priority 2021, published 2025).
pIC50: −log10 of the molar value. Counter-ions that a name gives are not always drawn.

Experiments:
c-Cbl = c-Cbl (Homo sapiens (Human), UniProt P22681); assay: C-Cbl LCK Ub TR-FRET assay (c-cbl Lck HTRF); format: biochemical; conditions: for (fold-selectivity): C-cbl Lck HTRF IC50 relative to Cbl-b Lck HTRF IC50
Experimental: 6 μL of detection mixture was added to all wells and briefly centrifuged before incubating for 20 min at room temperature. […] IC50 was generated using no LCK as the low control and DMSO as the high control.

Cbl-b = Cbl-b (Homo sapiens (Human), UniProt Q13191); assay: Cbl-b LCK Ub TR-FRET assay (Cbl-b Lck HTRF); format: biochemical
Sequence of Cbl-b (Q13191 40-426): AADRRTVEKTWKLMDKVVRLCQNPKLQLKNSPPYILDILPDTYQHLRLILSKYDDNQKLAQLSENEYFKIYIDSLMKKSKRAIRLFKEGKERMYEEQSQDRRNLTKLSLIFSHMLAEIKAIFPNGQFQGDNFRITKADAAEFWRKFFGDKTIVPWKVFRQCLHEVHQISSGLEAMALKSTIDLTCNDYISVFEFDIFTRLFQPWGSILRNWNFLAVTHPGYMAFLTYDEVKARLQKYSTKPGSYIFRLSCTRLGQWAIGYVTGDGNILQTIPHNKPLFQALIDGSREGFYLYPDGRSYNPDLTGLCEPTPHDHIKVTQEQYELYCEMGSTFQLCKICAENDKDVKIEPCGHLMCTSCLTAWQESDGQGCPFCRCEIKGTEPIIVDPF
Experimental: Compounds were 3-fold serially diluted in DMSO in a 384-well polypropylene plate (#P-05525-BC; Labcyte) to generate a source plate with 10 concentrations of each compound, top concentration=2 mM. 80 nL of DMSO or compounds were transferred to each well of a black 384-well ProxiPlate (#6008260; PerkinElmer) using a Labcyte Echo. 1×assay buffer (50 mM HEPES pH7.0, 100 mM NaCl, 0.01% BSA, 0.01% Triton-X100, 1 mM DTT), 2×enzyme solution (16 nM Biotin-Cbl-b or 12 nM Biotin-c-Cbl in 1× assay buffer), 2×kinase mixture (120 nM His-LCK, 1 mM ATP, 10 mM MgCl2 in assay buffer) and 2.33×detection mixture (4.66×solution 1: 163 nM Anti-HA-D2 antibody (#610HADAB; PerkinElmer), 27.96 nM Streptavidin-EU (#AD0062; PerkinElmer), 1.398 mM EDTA in 1×assay buffer+4.66×solution 2: 2.796 μM UBE2D2/Methylated-HA-Ubiquitin thioester adduct (BostonBiochem) in 1×assay buffer) were prepared. 4 μL of 2× enzyme solution was added to each well containing compound, briefly centrifuged to mix, and incubated for 60 min at room temperature. 4 μL of 2× kinase mixture was added, briefly centrifuged to mix, and incubated for 90 min. at room temperature. 6 μL of detection mixture was added to all wells and briefly centrifuged before incubating for 20 min at room temperature. Plates were read for TR-FRET using an Envision at excitation 340 nm, emission at 615 and 665 nm, 4 flashes per well. IC50 was generated using no LCK as the low control and DMSO as the high control.
Cbl-b Lck HTRF data in Table 7 is measured according to Example 76 herein; C-cbl Lck HTRF data is measured according to Example 76 herein.

Sequence of c-Cbl (P22681 47-435): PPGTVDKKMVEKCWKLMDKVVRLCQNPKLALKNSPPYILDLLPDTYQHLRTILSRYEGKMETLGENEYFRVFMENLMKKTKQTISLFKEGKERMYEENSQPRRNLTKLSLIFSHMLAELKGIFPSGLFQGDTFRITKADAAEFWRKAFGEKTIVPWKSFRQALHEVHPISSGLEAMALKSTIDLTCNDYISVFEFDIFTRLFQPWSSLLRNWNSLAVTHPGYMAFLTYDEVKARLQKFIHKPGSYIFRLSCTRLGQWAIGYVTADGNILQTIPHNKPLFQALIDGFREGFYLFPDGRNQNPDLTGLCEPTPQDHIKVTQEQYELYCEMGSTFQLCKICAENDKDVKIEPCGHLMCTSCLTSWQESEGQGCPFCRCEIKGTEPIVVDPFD

| SMILES | pIC50 (c-Cbl) | (fold-selectivity) (c-Cbl) | pIC50 (Cbl-b) |
| --- | --- | --- | --- |
| CC(C)[C@H]1CN(CCF)CCN1Cc1cc2c(c(C(F)(F)F)c1)CN(c1cccc(C3([C@@H](F)c4nncn4C)COC3)c1)C2=O [Compound 197, 2-(3-(3-((R)-fluoro(4-methyl-4H-1,2,4-triazol-3-yl)methyl)oxetan-3-yl)phenyl)-6-(((S)-4-(2-fluoroethyl)-2-isopropylpiperazin-1-yl)methyl)-4-(trifluoromethyl)isoindolin-1-one] | 7.89 | 1.6x | 8.10 |
| Cn1cnnc1[C@@H](F)C1(c2cccc(N3Cc4c(cc(CN5CCCC5)cc4C(F)(F)F)C3=O)c2)CC(F)(F)C1 [Compound 396, (S)-2-(3-(3,3-difluoro-1-(fluoro(4-methyl-4H-1,2,4-triazol-3-yl)methyl)cyclobutyl)phenyl)-6-(pyrrolidin-1-ylmethyl)-4-(trifluoromethyl)isoindolin-1-one] | 6.82 | (1.3x) | 6.92 |
| CC(C)[C@H]1CN(C)CCN1Cc1cc2c(c(C(F)(F)F)c1)CN(c1cccc([C@]3([C@@H](F)c4nncn4C)CCO3)c1)C2=O (single isomer, unassigned) [Compound 261] | 6.82 | (1.1x) | 6.85 |
| CC(C)C1(O)CN(Cc2cc3c(c(C(F)(F)F)c2)CN(c2cccc(C4([C@@H](F)c5nncn5C)COC4)c2)C3=O)C1 [Compound 183, (R)-2-(3-(3-(fluoro(4-methyl-4H-1,2,4-triazol-3-yl)methyl)oxetan-3-yl)phenyl)-6-((3-hydroxy-3-isopropylazetidin-1-yl)methyl)-4-(trifluoromethyl)isoindolin-1-one] | 6.92 | 2.2x | 7.24 |
| CC(C)Cc1cc(C2(Cc3nncn3C)CCC2)cc(N2Cc3c(cc(CNC4(C)CCC4)cc3C(F)(F)F)C2=O)n1 [Compound 342, 2-(6-isobutyl-4-(1-((4-methyl-4H-1,2,4-triazol-3-yl)methyl)cyclobutyl)pyridin-2-yl)-6-(((1-methylcyclobutyl)amino)methyl)-4-(trifluoromethyl)isoindolin-1-one formate] | 8.10 | – | 7.96 |
| Cn1cnnc1[C@H](F)C1(c2cccc(N3Cc4c(cc(CN5CCC5)cc4C(F)(F)F)C3=O)c2)CC(F)(F)C1 [Compound 397, (R)-6-(azetidin-1-ylmethyl)-2-(3-(3,3-difluoro-1-(fluoro(4-methyl-4H-1,2,4-triazol-3-yl)methyl)cyclobutyl)phenyl)-4-(trifluoromethyl)isoindolin-1-one] | 6.82 | (1.0x) | 6.82 |
| CCn1cnnc1[C@@H](F)C1(c2cccc(N3Cc4c(cccc4C(F)(F)F)C3=O)c2)COC1 [Compound 271, (S)-2-(3-(3-((4-ethyl-4H-1,2,4-triazol-3-yl)fluoromethyl)oxetan-3-yl)phenyl)-4-(trifluoromethyl)isoindolin-1-one] | 5.72 | (1.2x) | 5.80 |
| CC(C)[C@H]1CN(C)CCN1Cc1cc2c(c(C(F)(F)F)c1)CN(c1cc(C3([C@H](F)c4nncn4C)CCC3)cc(NCCO)n1)C2=O [Compound 234, 2-(4-(1-((S)-fluoro(4-methyl-4H-1,2,4-triazol-3-yl)methyl)cyclobutyl)-6-((2-hydroxyethyl)amino)pyridin-2-yl)-6-(((S)-2-isopropyl-4-methylpiperazin-1-yl)methyl)-4-(trifluoromethyl)isoindolin-1-one] | 8.07 | (1.2x) | 8.14 |
| CC(C)[C@H]1CN(Cc2cc3c(c(C(F)(F)F)c2)CN(c2cccc(C4([C@@H](F)c5nncn5C)COC4)c2)C3=O)CCN1 [Compound 90, 2-(3-(3((R)-fluoro(4-methyl-4H-1,2,4-triazol-3-yl)methyl)oxetan-3-yl)phenyl)-6-(((S)-3-isopropylpiperazin-1-yl)methyl)-4-(trifluoromethyl)isoindolin-1-one] | 7.24 | 1.4x | 7.38 |
| CC(C)[C@H]1CN(C)CCN1Cc1cc2c(c(C(F)(F)F)c1)CN(c1cccc(C3([C@H](F)c4nncn4C)CC(F)(F)C3)c1)C2=O [Compound 190, 2-(3-(3,3-difluoro-1-((S)-fluoro(4-methyl-4H-1,2,4-triazol-3-yl)methyl)cyclobutyl)phenyl)-6-(((S)-2-isopropyl-4-methylpiperazin-1-yl)methyl)-4-(trifluoromethyl)isoindolin-1-one] | 7.42 | 0.82x | 7.33 |
| Cn1cnnc1[C@@H](F)C1(c2cccc(N3Cc4c(cc(Oc5cn[nH]c5)cc4C(F)(F)F)C3=O)c2)COC1 [Compound 117, (S)-6-((1H-pyrazol-4-yl)oxy)-2-(3-(3-(fluoro(4-methyl-4H-1,2,4-triazol-3-yl)methyl)oxetan-3-yl)phenyl)-4-(trifluoromethyl)isoindolin-1-one] | 6.12 | 1.4x | 6.27 |
| CO[C@H]1CCN(Cc2cc3c(c(C(F)(F)F)c2)CN(c2cccc(C4([C@@H](F)c5nncn5C)COC4)c2)C3=O)C1 [Compound 131, 2-(3-(3-((R)-fluoro(4-methyl-4H-1,2,4-triazol-3-yl)methyl)oxetan-3-yl)phenyl)-6-(((S)-3-methoxypyrrolidin-1-yl)methyl)-4-(trifluoromethyl)isoindolin-1-one] | 6.77 | 2.9x | 7.23 |

More lines, now with the values ahead:

| pIC50 (c-Cbl) | (fold-selectivity) (c-Cbl) | pIC50 (Cbl-b) | SMILES |
| --- | --- | --- | --- |
| 8.36 | (0.76x) | 8.24 | C[C@H](NC1(C)CCC1)c1cc2c(c(C(F)(F)F)c1)CN(c1cccc(C3(Cc4nncn4C)CC(F)(F)C3)c1)C2=O [Compound 246, (S)-2-(3-(3,3-difluoro-1-((4-methyl-4H-1,2,4-triazol-3-yl)methyl)-cyclobutyl)phenyl)-6-(1-((1-methylcyclobutyl)amino)ethyl)-4-(trifluoromethyl)isoindolin-1-one] |
| 8.30 | 0.66x | 8.12 | CC(C)[C@H]1CN(C)CCN1Cc1cc2c(c(C(F)(F)F)c1)CN(c1cccc(C3(Cc4nncn4C)CC(F)(F)C3)c1)C2=O [Compound 215, (S)-2-(3-(3,3-difluoro-1-((4-methyl-4H-1,2,4-triazol-3-yl)methyl)cyclobutyl)phenyl)-6-((2-isopropyl-4-methylpiperazin-1-yl)methyl)-4-(trifluoromethyl)isoindolin-1-one] |
| 6.44 | (0.68x) | 6.28 | Cn1cnnc1CC1(c2cc(NCC3CCNCC3)nc(N3Cc4c(cc(CNC5(C)CCC5)cc4C(F)(F)F)C3=O)c2)CCC1 [Compound 339, 2-(4-(1-((4-methyl-4H-1,2,4-triazol-3-yl)methyl)cyclobutyl)-6-((piperidin-4-ylmethyl)amino)pyridin-2-yl)-6-(((1-methylcyclobutyl)amino)methyl)-4-(trifluoromethyl)isoindolin-1-one] |
| 5.60 | (5.7x) | 6.36 | Cn1cnnc1CC1(c2cc(NC3CCCC3)nc(N3Cc4c(cccc4C(F)(F)F)C3=O)c2)CCC1 [Compound 296, 2-(6-(cyclopentylamino)-4-(1-((4-methyl-4H-1,2,4-triazol-3-yl)methyl)cyclobutyl)pyridin-2-yl)-4-(trifluoromethyl)isoindolin-1-one] |
| 7.47 | (1.2x) | 7.57 | Cn1cnnc1CC1(c2cc(CCC(C)(C)C)nc(N3Cc4c(cc(CNC5(C)CCC5)cc4C(F)(F)F)C3=O)c2)CCC1 [Compound 322, 2-(6-(3,3-dimethylbutyl)-4-(1-((4-methyl-4H-1,2,4-triazol-3-yl)methyl)cyclobutyl)pyridin-2-yl)-6-(((1-methylcyclobutyl)amino)methyl)-4-(trifluoromethyl)isoindolin-1-one] |
| 7.92 | (0.71x) | 7.77 | CCNc1cc(N2Cc3c(cc(CNCC4CC4)cc3C(F)(F)F)C2=O)cc(C2(Cc3nncn3C)CCC2)c1 [Compound 457, 6-(((cyclopropylmethyl)amino)methyl)-2-(3-(ethylamino)-5-(1-((4-methyl-4H-1,2,4-triazol-3-yl)methyl)cyclobutyl)phenyl)-4-(trifluoromethyl)isoindolin-1-one] |
| 7.85 | (0.94x) | 7.82 | CC[C@H](C)NCc1cc2c(c(C(F)(F)F)c1)CN(c1cccc(C3(Cc4nncn4C)CC(F)(F)C3)c1)C2=O [Compound 371, (S)-6-((sec-butylamino)methyl)-2-(3-(3,3-difluoro-1-((4-methyl-4H-1,2,4-triazol-3-yl)methyl)cyclobutyl)phenyl)-4-(trifluoromethyl)isoindolin-1-one] |
